According to patent US12692254B2, “Benzimidazole inhibitors of PAD enzymes” (BRISTOL-MYERS SQUIBB COMPANY, priority 2018, dated 2026):

Biological target: human PAD4 (hPAD4) (Homo sapiens, UniProt Q9UM07)
Test: RFMS human PAD4 functional assay (rapid-fire mass spectrum)
Type: biochemical
Conditions: 5 nM hPAD4 enzyme, 250 μM BAEE, 50 μM Calcium; 30 min preincubation, 90 min reaction at 37° C.
Method in brief: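 PAD4 (10 nM) preincubated 30 min with compound (top final 50 μM), then BAEE substrate added in pH 7.5 HEPES buffer with DTT, 50 μM calcium, TPEN; 90 min at 37° C. After TCA quench, citrulline derivatized with phenyl glyoxal (4 mM final, 30 min, 37° C) and quantified by RapidFire MS against internal standard.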

Chain of human PAD4 (hPAD4) (Q9UM07 whole entry): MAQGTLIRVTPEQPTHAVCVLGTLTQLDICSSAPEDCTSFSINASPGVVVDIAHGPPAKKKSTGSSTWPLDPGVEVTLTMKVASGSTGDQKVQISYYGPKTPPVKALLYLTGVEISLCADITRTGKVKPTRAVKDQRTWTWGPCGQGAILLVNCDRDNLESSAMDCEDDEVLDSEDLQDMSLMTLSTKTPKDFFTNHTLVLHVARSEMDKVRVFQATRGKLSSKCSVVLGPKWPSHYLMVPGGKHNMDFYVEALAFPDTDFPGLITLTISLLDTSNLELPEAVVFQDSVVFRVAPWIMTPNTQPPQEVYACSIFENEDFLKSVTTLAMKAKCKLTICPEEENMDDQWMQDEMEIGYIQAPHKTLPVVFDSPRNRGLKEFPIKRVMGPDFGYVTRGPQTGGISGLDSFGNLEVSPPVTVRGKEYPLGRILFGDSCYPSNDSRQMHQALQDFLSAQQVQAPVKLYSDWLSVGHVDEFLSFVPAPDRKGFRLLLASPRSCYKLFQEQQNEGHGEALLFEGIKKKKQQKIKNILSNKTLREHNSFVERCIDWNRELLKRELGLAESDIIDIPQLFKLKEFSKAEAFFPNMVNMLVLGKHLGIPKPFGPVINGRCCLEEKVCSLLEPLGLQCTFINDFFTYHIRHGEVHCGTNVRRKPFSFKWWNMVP

Row | SMILES | IC50
1 | COc1cc(C(=O)N2C[C@H]3CC[C@@H]2[C@@H]3N)cc2nc(-c3cc4ccccc4n3CC3CC3)n(C[C@H]3CCN(c4cncc(C#N)n4)C3)c12 [Example 196, 6-[(3S)-3-({5-[(1R,4R,7R)-7-amino-2-azabicyclo[2.2.1]heptane-2-carbonyl]-2-[1-(cyclopropylmethyl)-1H-indol-2-yl]-7-methoxy-1H-1,3-benzodiazol-1-yl}methyl)pyrrolidin-1-yl]pyrazine-2-carbonitrile] | 16 nM
2 | COc1cc(C(=O)N2CC3CCC2[C@@H]3N)cc2nc(-c3cc4ccccc4n3CC3CC3)n(Cc3cnn(-c4ccc(C(F)F)nc4)c3)c12 (stereo partly drawn) [Example 387, (7R)-2-{2-[1-(cyclopropylmethyl)-1H-indol-2-yl]-1-({1-[6-(difluoromethyl)pyridin-3-yl]-1H-pyrazol-4-yl}methyl)-7-methoxy-1H-1,3-benzodiazole-5-carbonyl}-2-azabicyclo[2.2.1]heptan-7-amine] | 42 nM
3 | COc1cc(C(=O)N2C[C@H]3CC[C@@H]2[C@@H]3N)cc2nc(-c3cc4cccnc4n3CC3CC3)n(C3CN(C(=O)c4cnc(NCC(C)(C)O)nc4)C3)c12 [Example 185, 1-{[5-(3-{5-[(1R,4R,7R)-7-amino-2-azabicyclo[2.2.1]heptane-2-carbonyl]-2-[1-(cyclopropylmethyl)-1H-pyrrolo[2,3-b]pyridin-2-yl]-7-methoxy-1H-1,3-benzodiazol-1-yl}azetidine-1-carbonyl)pyrimidin-2-yl]amino}-2-methylpropan-2-ol] | 316 nM
4 | COc1cc(C(=O)N2CC3CCC2[C@@H]3N)cc2nc(-c3cc4cccnc4n3CC3CC3)n(CC3CN(C(=O)c4ccccc4F)C3)c12 (stereo partly drawn) [Example 442, (7R)-2-{2-[1-(cyclopropylmethyl)-1H-pyrrolo[2,3-b]pyridin-2-yl]-1-{[1-(2-fluorobenzoyl)azetidin-3-yl]methyl}-7-methoxy-1H-1,3-benzodiazole-5-carbonyl}-2-azabicyclo[2.2.1]heptan-7-amine] | 39 nM
5 | COc1cc(C(=O)C2C[C@H]3CC[C@H]2[C@@H]3N)cc2nc(-c3cc4ccccc4n3CC3CC3)n(C[C@H]3CCNC3)c12 (stereo partly drawn) [Example 273, (1R,4R,7R)-2-{2-[1-(cyclopropylmethyl)-1H-indol-2-yl]-7-methoxy-1-{[(3S)-pyrrolidin-3-yl]methyl}-1H-1,3-benzodiazole-5-carbonyl}bicyclo[2.2.1]heptan-7-amine] | 33 nM
6 | COc1cc(C(=O)N2CC3CCC2[C@@H]3N)cc2nc(-c3cc4ccccc4n3CC3CC3)n(C[C@H]3CCN(c4cncc(C#N)c4)C3)c12 (stereo partly drawn) [Example 225, 5-[(3S)-3-({5-[(1R,4R,7R)-7-amino-2-azabicyclo[2.2.1]heptane-2-carbonyl]-2-[1-(cyclopropylmethyl)-1H-indo1-2-yl]-7-methoxy-1H-1,3-benzodiazol-1-yl}methyl)pyrrolidin-1-yl]pyridine-3-carbonitrile] | 26 nM
7 | COc1cc(C(=O)N2CC3(CCCNC3)C2)cc2nc(-c3cc4ccccc4n3CC3CC3)n(Cc3cnn(C)c3)c12 [Example 288, 2-{2-[1-(cyclopropylmethyl)-1H-indol-2-yl]-7-methoxy-1-[(1-methyl-1H-pyrazol-4-yl)methyl]-1H-1,3-benzodiazole-5-carbonyl}-2,6-diazaspiro[3.5]nonane] | 1280 nM
8 | COc1cc(C(=O)N2C[C@H]3CC[C@@H]2[C@@H]3N)cc2nc(-c3cc4cccnc4n3CC3CC3)n(CC3CCN(C(=O)c4ccnc(C)n4)CC3)c12 [Example 199, (1R,4R,7R)-2-{2-[1-(cyclopropylmethyl)-1H-pyrrolo[2,3-b]pyridin-2-yl]-7-methoxy-1-{[1-(2-methylpyrimidine-4-carbonyl)piperidin-4-yl]methyl}-1H-1,3-benzodiazole-5-carbonyl}-2-azabicyclo[2.2.1]heptan-7-amine] | 162 nM
9 | COC(=O)c1cccc(-n2cc(Cn3c(-c4cc5cccnc5n4CC4CC4)nc4cc(C(=O)N5C[C@H](N)C[C@@H](F)C5)cc(OC)c43)cn2)n1 [Example 364, methyl 6-[4-({5-[(3R,5R)-3-amino-5-fluoropipendine-1-carbonyl]-2-[1-(cyclopropylmethyl)-1H-pyrrolo[2,3-b]pyridin-2-yl]-7-methoxy-1H-1,3-benzodiazol-1-yl}methyl)-1H-pyrazol-1-yl]pyridine-2-carboxylate] | 26 nM
10 | COc1cc(C(=O)N2CC3CCC2[C@@H]3N)cc2nc(-c3csc4ccc(Cl)cc34)n(CC3CN(c4cncc(C(N)=O)c4)C3)c12 (stereo partly drawn) [Example 322, 5[3-({5-[(1R,4R,7R)-7-amino-2-azabicyc1o[2.2.1]heptane-2-carbonyl]-2-(5-ch1oro-1-benzothiophen-3-yl)-7-methoxy-1H-1,3-benzodiazol-1-yl}methyl)azetidin-1-yl]pyridine-3-carboxamide] | 2050 nM
11 | COc1cc(C(=O)N2C[C@H]3CC[C@@H]2[C@@H]3N)cc2nc(-c3cc4cccnc4n3CC3CC3)n(C3CN(C(=O)c4ccncc4)C3)c12 [Example 189, (1R,4R,7R)-2-{2-[1-(cyclopropylmethyl)-1H-pyrrolo[2,3-b]pyridin-2-yl]-7-methoxy-1-[1-(pyridine-4-carbonyl)azetidin-3-yl]-1H-1,3-benzodiazol-5-carbonyl}-2-azabicyclo[2.2.1]heptan-7-amine] | 583 nM
12 | COc1cc(C(=O)N2CC3CCC2[C@@H]3N)cc2nc(-c3cc4cccnc4n3CC3CC3)n([C@H]3C[C@@H](C(N)=O)C3)c12 (stereo partly drawn) [Example 294, (1s,3s)-3-{5-[(1R,4R,7R)-7-amino-2-azabicyclo[2.2.1]heptane-2-carbonyl]-2-[1-(cyclopropylmethyl)-1H-pyrrolo[2,3-b]pyridin-2-yl]-7-methoxy-1H-1,3-benzodiazol-1-yl}cyclobutane-1-carboxamide] | 456 nM

The remaining compounds from weak to strong by IC50, led by results:

Row | IC50 | SMILES
13 | 409 nM | COc1cc(C(=O)N2CC3CCC2[C@@H]3N)cc2nc(-c3cc4ccccc4n3CC3CC3)n(Cc3cnnn3C)c12 (stereo partly drawn) [Example 514, (7R)-2-{2-[1-(cyclopropylmethyl)-1H-indol-2-yl]-7-methoxy-1-[(1-methyl-1H-1,2,3-triazol-5-yl)methyl]-1H-1,3-benzodiazole-5-carbonyl}-2-azabicyclo[2.2.1]heptan-7-amine]
14 | 156 nM | COc1cc(C(=O)N2C[C@H]3CC[C@@H]2[C@@H]3N)cc2nc(-c3cc4cccnc4n3CC3CC3)n(CC3CN(c4cncnc4C#N)C3)c12 [Example 52, 5-[3-({5-[(1R,4R,7R)-7-amino-2-azabicyclo[2.2.1]heptane-2-carbonyl]-2-[1-(cyclopropylmethyl)-1H-pyrrolo[2,3-b]pyridin-2-yl]-7-methoxy-1H-1,3-benzodiazol-1-yl}methyl)azetidin-1-yl]pyrimidine-4-carbonitrile]
15 | 102 nM | C=CC(=O)N1CC(Cn2c(-c3cc4cccnc4n3CC3CC3)nc3cc(C(=O)N4C[C@H]5CC[C@@H]4[C@@H]5N)cc(OC)c32)C1 [Example 124, 1-[3-({5-[(1R,4R,7R)-7-amino-2-azabicyclo[2.2.1]heptane-2-carbonyl]-2-[1-(cyclopropylmethyl)-1H-pyrrolo[2,3-b]pyridin-2-yl]-7-methoxy-1H-1,3-benzodiazol-1-yl}methyl)azetidin-1-yl]prop-2-en-1-one]
16 | 43 nM | COc1cc(C(=O)N2CC3CCC2[C@@H]3N)cc2nc(-c3cc4ccccc4n3CC3CC3)n(CC3CN(C(=O)c4ncccn4)C3)c12 (stereo partly drawn) [Example 446, (7R)-2-{2-[1-(cyclopropylmethyl)-1H-indol-2-yl]-7-methoxy-1-{[1-(pyrimidine-2-carbonyl)azetidin-3-yl]methyl}-1H-1,3-benzodiazole-5-carbonyl}-2-azabicyclo[2.2.1]heptan-7-amine]
17 | 37 nM | COc1cc(C(=O)N2C[C@H]3CC[C@@H]2[C@@H]3N)cc2nc(-c3cc4ccccc4n3CC3CC3)n(CC3CN(c4cncnc4C#N)C3)c12 [Example 11, 5-[3-({5-[(1R,4R,7R)-7-amino-2-azabicyclo[2.2.1]heptane-2-carbonyl]-2-[1-(cyclopropylmethyl)-1H-indol-2-yl]-7-methoxy-1H-1,3-benzodiazol-1-yl}methyl)azetidin-1-yl]pyrimidine-4-carbonitrile]
18 | 35 nM | COc1cc(C(=O)N2C[C@H](N)C[C@@H](F)C2)cc2nc(-c3cc4cccnc4n3CC3CC3)n(Cc3cnn(-c4cccc(C(F)F)n4)c3)c12 [Example 375]
19 | 30 nM | COc1cc(C(=O)N2CC3CCC2[C@@H]3N)cc2nc(-c3cc4cccnc4n3CC3CC3)n(CC3CN(C(=O)c4c(F)cccc4F)C3)c12 (stereo partly drawn) [Example 431, (7R)-2-{2-[1-(cyclopropylmethyl)-1H-pyrrolo[2,3-b]pyridin-2-yl]-1-{[1-(2,6-difluorobenzoyl)azetidin-3-yl]methyl}-7-methoxy-1H-1,3-benzodiazole-5-carbonyl}-2-azabicyclo[2.2.1]heptan-7-amine]
20 | 26 nM | COc1cc(C(=O)N2C[C@H]3CC[C@@H]2[C@@H]3N)cc2nc(-c3cc4ccccc4n3CC3CC3)n(CC3CN(C(=O)c4ccccc4F)C3)c12 [Example 164, (1R,4R,7R)-2-{2-[1-(cyclopropylmethyl)-1H-indol-2-yl]-1-{[1-(2-fluorobenzoyl)azetidin-3-yl]methyl}-7-methoxy-1H-1,3-benzodiazole-5-carbonyl}-2-azabicyclo[2.2.1]heptan-7-amine]
21 | 22 nM | COc1cc(C(=O)N2C[C@H]3CC[C@@H]2[C@@H]3N)cc2nc(-c3cc4ccccc4n3CC3CC3)n(CC3CN(C(=O)c4cnn(C)c4)C3)c12 [Example 155, (1R,4R,7R)-2-{2-[1-(cyclopropylmethyl)-1H-indol-2-yl]-7-methoxy-1-{[1-(1-methyl-1H-pyrazole-4-carbonyl)azetidin-3-yl]methyl}-1H-1,3-benzodiazole-5-carbonyl}-2-azabicyclo[2.2.1]heptan-7-amine]
22 | 11 nM | N[C@@H]1C2CCC1N(C(=O)c1cc(F)c3c(c1)nc(-c1cc4ccccc4n1CC1CC1)n3CC1CN(C(=O)c3ccccc3)C1)C2 (stereo partly drawn) [Example 136, (1R,4R,7R)-2-{1-[(1-benozylazetidin-3-yl)methyl]-2-[1-(cyclopropylmethyl)-1H-indol-2-yl]-7-fluoro-1H-1,3-benzodiazole-5-carbonyl}-2-azabicyclo[2.2.1]heptan-7-amine]
